This note sets out measurements from ChEMBL document CHEMBL1145743, “High-throughput synthesis and optimization of thrombin inhibitors via urazole alpha-addition and Michael addition” (Bioorg Med Chem Lett, 2003).

Activity calls are given as the source filed them. No cut-off for these calls is given here.

One test deals with T1, Prothrombin (Homo sapiens, UniProt P00734). Briefly: Inhibitory activity against thrombin at concentration 400 nM; NA: Not active.
Conditions: not given
`CCCSCC(C(=O)O)n1c(=O)n2n(c1=O)C(C(=O)NC[C@H]1CC[C@H](N)CC1)C=CC2` (some centres not stated): the inhibition result was “inactive”.

In a further test the target is T1, Prothrombin. Briefly: Inhibitory activity against human thrombin.
Conditions: not given
Broadly, the Ki is the dissociation constant of the complex between target and ligand, obtained from inhibition or displacement. High values mean lower affinity, low ones higher affinity. In turn, `Cc1nc(N)ccc1CNC(=O)C1C=CCn2c(=O)n(C(CSc3ccc(Cl)c(Cl)c3)C(=O)O)c(=O)n21` (configuration not stated) came in with a Ki of 22 nM.

Take `Cc1nc(N)ccc1CNC(=O)C1C=CCn2c(=O)n(C(CSc3ccc(Cl)c(Cl)c3)C(=O)N3CCCC3)c(=O)n21` (configuration not stated): the Ki amounted to 18 nM. The compound `Cc1nc(N)ccc1CNC(=O)C1C=CCn2c(=O)n(C(CSC3CCCCC3)C(=O)O)c(=O)n21` (configuration not stated) displayed a Ki of 11 nM. The same measure, in the same setting: the value for `Cc1nc(N)ccc1CNC(=O)C1C=CCn2c(=O)n(C(CSc3ccc(Br)cc3)C(=O)N3CCOCC3)c(=O)n21` (configuration not stated) was 39 nM; that for `Cc1nc(N)ccc1CNC(=O)C1C=CCn2c(=O)n(C(CSc3ccc(Br)cc3)C(=O)OC(C)C)c(=O)n21` (configuration not stated) was 0.087 nM. On to `Cc1nc(N)ccc1CNC(=O)C1C=CCn2c(=O)n(C(CSc3ccc(Br)cc3)C(=O)OC3CCCCC3)c(=O)n21` (configuration not stated), for which the Ki was 1.5 nM.

For `COC(=O)C(CSc1ccc(Br)cc1)n1c(=O)n2n(c1=O)C(C(=O)NC[C@H]1CC[C@H](N)CC1)C=CC2` (some centres not stated), the Ki was 0.023 nM.

Take `Cc1nc(N)ccc1CNC(=O)C1C=CCn2c(=O)n(C(CSc3ccc(Cl)c(Cl)c3)C(=O)OC3CCCCC3)c(=O)n21` (configuration not stated): the affinity corresponds to a Ki of 87 nM. Compound `COC(=O)C(CSc1ccc(Cl)cc1)n1c(=O)n2n(c1=O)C(C(=O)NC[C@H]1CC[C@H](N)CC1)C=CC2` (some centres not stated) returned a Ki of 0.32 nM. `COc1ccc(SCC(C(=O)O)n2c(=O)n3n(c2=O)C(C(=O)NCc2ccc(N)nc2C)C=CC3)cc1` (configuration not stated): the affinity corresponds to a Ki of 29 nM. `Cc1nc(N)ccc1CNC(=O)C1C=CCn2c(=O)n(C(CSc3ccc(Cl)cc3)C(=O)OC3CCCCC3)c(=O)n21` (configuration not stated) registered a Ki of 0.057 nM. Compound `COC(=O)C(CSc1ccc(OC)cc1)n1c(=O)n2n(c1=O)C(C(=O)NC[C@H]1CC[C@H](N)CC1)C=CC2` (some centres not stated) yielded a Ki of 0.75 nM. This Ki lies about 13-fold higher than the previous one. Turning to `COC(=O)C(CSc1ccc(Cl)cc1)n1c(=O)n2n(c1=O)C(C(=O)NCc1ccc(N)nc1C)C=CC2` (configuration not stated), affinity was put at a Ki of 82 nM. Compared with the last compound, the Ki is about 110-fold higher. On to `CCOC(=O)C(CSc1ccc(Cl)c(Cl)c1)n1c(=O)n2n(c1=O)C(C(=O)NCc1ccc(N)nc1C)C=CC2` (configuration not stated), for which affinity was put at a Ki of 28 nM. In turn, `Cc1nc(N)ccc1CNC(=O)C1C=CCn2c(=O)n(C(CSc3ccc(Cl)cc3)C(=O)N3CCCC3)c(=O)n21` (configuration not stated) showed a Ki of 24 nM. The compound `N[C@H]1CC[C@H](CNC(=O)C2C=CCn3c(=O)n(C(CSC4CCCCC4)C(=O)O)c(=O)n32)CC1` (some centres not stated) registered a Ki of 53 nM. `Cc1nc(N)ccc1CNC(=O)C1C=CCn2c(=O)n(C(CSc3ccccc3)C(=O)O)c(=O)n21` (configuration not stated): the inhibitory constant (Ki) came out at 15 nM. `COC(=O)C(CSc1ccccc1)n1c(=O)n2n(c1=O)C(C(=O)NCc1ccc(N)nc1C)C=CC2` (configuration not stated) came in with a Ki of 32 nM. `Cc1nc(N)ccc1CNC(=O)C1C=CCn2c(=O)n(C(CSc3ccc(Br)cc3)C(=O)N3CCCC3)c(=O)n21` (configuration not stated) came in with a Ki of 30 nM. Compound `N[C@H]1CC[C@H](CNC(=O)C2C=CCn3c(=O)n(C(CSc4ccc(Br)cc4)C(=O)O)c(=O)n32)CC1` (some centres not stated) yielded a Ki of 2.6 nM. Regarding `Cc1nc(N)ccc1CNC(=O)C1C=CCn2c(=O)n(C(CSc3ccc(Cl)cc3)C(=O)N3CCOCC3)c(=O)n21` (configuration not stated), the Ki was 7.7 nM. For `COC(=O)C(CSc1ccc(OC)cc1)n1c(=O)n2n(c1=O)C(C(=O)NCc1ccc(N)nc1C)C=CC2` (configuration not stated), the Ki was 80 nM. Same read-out and setting: the result for `COC(=O)C(CSC1CCCCC1)n1c(=O)n2n(c1=O)C(C(=O)NCc1ccc(N)nc1C)C=CC2` (configuration not stated) reads 28 nM; that for `Cc1nc(N)ccc1CNC(=O)C1C=CCn2c(=O)n(C(CSc3ccc(Cl)cc3)C(=O)OC(C)C)c(=O)n21` (configuration not stated), 1.5 nM; that for `Cc1nc(N)ccc1CNC(=O)C1C=CCn2c(=O)n(C(CSc3ccc(Cl)cc3)C(=O)O)c(=O)n21` (configuration not stated), 32 nM. The compound `N[C@H]1CC[C@H](CNC(=O)C2C=CCn3c(=O)n(C(CSc4ccc(Cl)c(Cl)c4)C(=O)O)c(=O)n32)CC1` (some centres not stated) yielded an inhibitory constant (Ki) of 13 nM.

As to `N[C@H]1CC[C@H](CNC(=O)C2C=CCn3c(=O)n(C(CSc4ccc(Cl)cc4)C(=O)O)c(=O)n32)CC1` (some centres not stated), the Ki was 5.7 nM. Take `COc1ccc(SCC(C(=O)O)n2c(=O)n3n(c2=O)C(C(=O)NC[C@H]2CC[C@H](N)CC2)C=CC3)cc1` (some centres not stated): the inhibition constant Ki turned out to be 4.7 nM. `COC(=O)C(CSC1CCCCC1)n1c(=O)n2n(c1=O)C(C(=O)NC[C@H]1CC[C@H](N)CC1)C=CC2` (some centres not stated) returned a Ki of 91 nM.

Turning to `COC(=O)C(CSc1ccc(Br)cc1)n1c(=O)n2n(c1=O)C(C(=O)NCc1ccc(N)nc1C)C=CC2` (configuration not stated), the inhibitory constant (Ki) came to 83 nM. For `COC(=O)C(CSc1ccc(Cl)c(Cl)c1)n1c(=O)n2n(c1=O)C(C(=O)NCc1ccc(N)nc1C)C=CC2` (configuration not stated), the Ki was 78 nM. This Ki and that of the compound before are within 1.5-fold of each other.

As to `Cc1nc(N)ccc1CNC(=O)C1C=CCn2c(=O)n(C(CSc3ccc(Cl)c(Cl)c3)C(=O)OC(C)C)c(=O)n21` (configuration not stated), the Ki is 53 nM. This Ki and that of the compound before are within 1.5-fold of each other.

Turning to `N[C@H]1CC[C@H](CNC(=O)C2C=CCn3c(=O)n(C(CSc4ccccc4)C(=O)O)c(=O)n32)CC1` (some centres not stated), the inhibition constant Ki came to 36 nM.

`COC(=O)C(CSc1ccccc1)n1c(=O)n2n(c1=O)C(C(=O)NC[C@H]1CC[C@H](N)CC1)C=CC2` (some centres not stated) showed a Ki of 2.9 nM. This Ki lies about 12-fold lower than the previous one. In turn, `COC(=O)C(CSc1ccc(Cl)c(Cl)c1)n1c(=O)n2n(c1=O)C(C(=O)NC[C@H]1CC[C@H](N)CC1)C=CC2` (some centres not stated) displayed a Ki of 0.24 nM. Still for that read-out and setting: the value for `CCOC(=O)C(CSc1ccc(Br)cc1)n1c(=O)n2n(c1=O)C(C(=O)NCc1ccc(N)nc1C)C=CC2` (configuration not stated) was 0.27 nM.

The target of a further test is T1, Prothrombin. Put plainly: Inhibitory activity against thrombin; NA=not active.
Conditions: not given
On to `CCOC(=O)C(CSc1ccc(Cl)cc1)n1c(=O)n2n(c1=O)C(C(=O)NCc1ccc(N)nc1C)C=CC2` (configuration not stated), for which the Ki entry is on record as “Not Active”.

Turning to `Cc1nc(N)ccc1CNC(=O)C1C=CCn2c(=O)n(C(CSc3ccc(Br)cc3)C(=O)O)c(=O)n21` (configuration not stated), the Ki result is recorded as “Not Active”. Consider `Cc1nc(N)ccc1CNC(=O)C1C=CCn2c(=O)n(C(CSc3ccc(Cl)c(Cl)c3)C(=O)N3CCOCC3)c(=O)n21` (configuration not stated), for which the Ki result was “Not Active”.

In the next test the target is T1, Prothrombin. To be noted: at 400 nM.
Description: Inhibitory activity against thrombin at 400 nM; NA=not active
As for `CCCSCC(C(=O)O)n1c(=O)n2n(c1=O)C(C(=O)NCc1ccc(N)nc1C)C=CC2` (configuration not stated), the inhibition result is “inactive”.

As to `COC(=O)C(CSc1ccc(Br)cc1)n1c(=O)n2n(c1=O)C(C(=O)NC[C@H]1CC[C@H](N)CC1)C=CC2` (some centres not stated), the inhibition entry was “inactive”. On the same count and under the same terms, the value for `Cc1nc(N)ccc1CNC(=O)C1C=CCn2c(=O)n(C(CNCc3ccccc3)C(=O)O)c(=O)n21` (configuration not stated) was “inactive”. `COC(=O)C(CSCC(O)CO)n1c(=O)n2n(c1=O)C(C(=O)NCc1ccc(N)nc1C)C=CC2` (configuration not stated): the inhibition result was “inactive”. Still for that read-out and setting: the value for `COC(=O)C(CNCC(C)C)n1c(=O)n2n(c1=O)C(C(=O)NCc1ccc(N)nc1C)C=CC2` (configuration not stated) was “inactive”; that for `COC(=O)C(CNC1CCCCC1)n1c(=O)n2n(c1=O)C(C(=O)NCc1ccc(N)nc1C)C=CC2` (configuration not stated) was “inactive”. `Cc1nc(N)ccc1CNC(=O)C1C=CCn2c(=O)n(C(CNCC(C)C)C(=O)O)c(=O)n21` (configuration not stated): the inhibition result is “inactive”. In the case of `Cc1nc(N)ccc1CNC(=O)C1C=CCn2c(=O)n(C(CSc3ccc(Br)cc3)C(=O)O)c(=O)n21` (configuration not stated), the inhibition result is “inactive”.

As to `COC(=O)C(CSc1ccc(C)cc1C)n1c(=O)n2n(c1=O)C(C(=O)NCc1ccc(N)nc1C)C=CC2` (configuration not stated), the inhibition entry was “inactive”. Take `N[C@H]1CC[C@H](CNC(=O)C2C=CCn3c(=O)n(C(CNC4CCCCC4)C(=O)O)c(=O)n32)CC1` (some centres not stated): the inhibition result is “inactive”.

For the compound `CC(=O)Nc1ccc(SCC(C(=O)O)n2c(=O)n3n(c2=O)C(C(=O)NC[C@H]2CC[C@H](N)CC2)C=CC3)cc1` (some centres not stated), the inhibition result is “inactive”. The same measure, in the same setting: the value for `Cc1nc(N)ccc1CNC(=O)C1C=CCn2c(=O)n(C(CSCC(C)C)C(=O)O)c(=O)n21` (configuration not stated) was “inactive”.
